Experiments:
Pat9 HGG neurospheres = test: 3D matrigel invasion assay of patient-derived HGG neurospheres (Pat9); assay type: cell-based, human; conditions: within 24 h; for neurosphere invasion (change in area over T0): 10-50 μM at embedding, refreshed daily, maintained through 48 h, relative to controls
Procedure: Pat8 and Pat9 HGG neurospheres were embedded in matrigel and allowed to invade. […] Images were captured at embedding (T0) and every 24 h. Invasion area was calculated as increase in area over T0 Pat9 or Pat8 neurosphere areas (FIGS. 3A-3B, respectively). Both Pat9 and Pat8 neurospheres robustly invaded through 48 h, similar to control vehicle-treated neurospheres.
It was previously shown in U87 spheroids that IMM invasion blockade was reversible. Whether IMM anti-invasion effects were reversible was assessed (FIGS. 4A-4B). Pat9 neurospheres were incubated with vehicle or IMMs for 48 h. Drug washouts were then performed with drug-free media and invasion continued for 48 h. As before, IMM removal released invasion suppression relative to neurospheres held in IMMs for 96 h. The live-dead cell dye Draq7 was then used on invading neurospheres treated with IMMs. […] Unexpectedly, when started at 48 h post-invasion in B27-treated control invading neurospheres, IMM treatment for 48 h thereafter induced robust cell death (FIG. 4C).
(§1) Neurospheres formed spontaneously in isolated patient sample monolayer cells. Once spheres detach from monolayers, they were collected using wide-orifice pipette tips and moved to poly-HEMA (Sigma) coated U-bottom 96-well plates. Neurospheres were used upon reaching 200-250 μm diameter. Once neurospheres reached 350 μm, they were dissociated and re-plated in poly-HEMA U-bottom plates at 2000 cells/well.
(§2) 3D invasion assays were as described. Briefly, a thin layer of 5 mg/ml GFR matrigel (Corning) was placed in 8-well chamber glasses (Lab-tek). Neurospheres were added and topped with thin-layer matrigel. Matrigel polymerized for 45 min at 37° C. before addition of 250 μl of media with IMMs. Invasions were imaged at time zero (T0) and every 24 h for experimental durations. Invaded spheroids/spontaneous neurospheres were imaged using an EVOS inverted microscope with an Olympus 4×UplanFL N0.13 PhP objective lens. All measurements were completed with MetaMorph software (Molecular Devices).

[1] = tested on: tumor microtubes (TMs) in Pat9 neurospheres; test: Tumor microtube (TM) formation and length in neurosphere edge cells (IF, Metamorph); assay type: cell-based, human; conditions: for tumor TM length upon drug washout: 50 μM
Procedure: FIGS. 6A-6E: Tumor microtube shortening and amoeboid cell morphologies in IMM-treated HGG patient-derived neurospheres. […] Left-most boxes indicate areas of magnification shown. Scale bar (upper panel)=25 μm; (lower panel 100 μm). FIGS. 6B-6C show tumor TM lengths were measured using Metamorph software from cell nuclei to tumor TM ends. TMs measured from N>196 cells across three replicate experiments. TMs were measured in control (FIG. 6B), or drug washout experiments using 50 μM IMM01 or IMM02 where m=maintained drug and r=washout (FIG. 6C). Data are shown as scatter plots in FIGS. 6B-6C, or histograms (FIGS. 6B′, 6C′). […] FIGS. 6D, 6D′ show cellular morphologies measured in neurosphere edge cells and EI were calculated by dividing cell long by short axes, where EI=1 is a rounded cell, and E>1 is an elongated cell. N>196 cells across three replicate experiments. Data are shown as scatter plots (FIG. 6D, 6E), or histograms (FIG. 6D′, FIG. 6E′).
FIG. 11: Tumor TM measurements in HGG patient neurospheres. Pat9 neurospheres invaded for 96 h in matrigel in the presence of DMSO, 50 μM IMM01, or 50 μM IMM02. Tumor TMs were measured using Metamorph software by drawing lines (colored lines) along the length of tumor TMs from cell bodies to the end of the tumor TM using brightfield images.
IF was performed on fixed Pat9 neurospheres treated with or without IMMs for 96 h (FIGS. 5A-5B, respectively). mDia1, mDia2, F-actin, β-tubulin, or de-tyrosinated β-tubulin (glu-tubulin) were visualized (to assess stabilized microtubules). Invaded control neurospheres had diffuse invasive fronts, with extensive symmetrical invasion away from the central neurosphere core. Both mDia1 and mDia2 were diffusely cytoplasmic. […] Some cells were enriched in traditional parallel lamellar actin stress fibers and others with numerous radial F-actin-enriched filopodia-like structures (FIG. 8). […]
Cell protrusions were confirmed by IF to robustly express punctate Connexin-43 (FIG. 6A). […] Tumor TM length was measured in neurosphere edge cells in IMM-treated Pat9 neurospheres. […]

Pat8 HGG neurospheres = test: 3D matrigel invasion assay of patient-derived HGG neurospheres (Pat8); assay type: cell-based, human; conditions: 10-50 μM at embedding, refreshed daily, within 24 h, maintained through 48 h, relative to controls
Procedure: Pat8 and Pat9 HGG neurospheres were embedded in matrigel and allowed to invade. At embedding, neurospheres were treated with 10-50 μM IMM01 or IMM02 and refreshed daily. Images were captured at embedding (T0) and every 24 h. Invasion area was calculated as increase in area over T0 Pat9 or Pat8 neurosphere areas (FIGS. 3A-3B, respectively). Both Pat9 and Pat8 neurospheres robustly invaded through 48 h, similar to control vehicle-treated neurospheres.
as §1
as §2, with “All measurements were completed with MetaMorph software (Molecular Devices).” left out

mDia = conditions: cited from earlier work
U251 monolayers = conditions: 2D U251 monolayers; cited from earlier work
p53 = conditions: cited from earlier work

| SMILES | neurosphere invasion (Pat9 HGG neurospheres; 1 μM) | tumor TM formation ([1]; 1 μM, within 24 h) | neurosphere invasion (change in area over T0) (Pat9 HGG neurospheres) | neurosphere invasion (change in area over T0) (Pat8 HGG neurospheres) | tumor TM length upon drug washout [1] | mDia autoinhibition / F-actin polymerization (mDia) | cell cycle progression, apoptosis/multi-nucleation (U251 monolayers) | p53 expression (p53) |
| --- | --- | --- | --- | --- | --- | --- | --- | --- |
| COC(=O)Nc1nc2ccc(C(=O)c3cccs3)cc2[nH]1 [nocadazole, nocodazole, reference compound] | halted | halted | – | – | – | – | – | – |
| C/C(=N\NC(=S)NC(C)(C)C)c1cc(F)cc(F)c1O [IMM02, N1-(tert-butyl)-2-[1-(3,5-difluoro-2-hydroxyphenyl)ethylidene]hydrazine-1-carbothioamide] | – | – | significantly halted invasion | significantly halted invasion | recovered to controls | relieved mDia autoinhibition to induce F-actin polymerization | neither changes in cell cycle progression, nor increases in apoptosis/multi-nucleation | – |
| O=C1NC(=S)N(c2cccc(Br)c2)C(=O)/C1=C/c1ccco1 [SMIFH2] | – | – | – | – | – | – | – | downregulated p53 expression |
| CC(C)(C)NC(=S)N/N=C/c1ccc(O)cc1O [IMM01, 2-[(2,4-dihydroxyphenyl)methylene]-N-(1,1-dimethylethyl)-hydrazinecarbothioamide] | – | – | significantly halted invasion | significantly halted invasion | recovered to controls | relieved mDia autoinhibition to induce F-actin polymerization | neither changes in cell cycle progression, nor increases in apoptosis/multi-nucleation | – |
